Each structure is given as a SMILES string. Some results are limits rather than exact numbers.

The test system of the first test is Jurkat FADD (−/−) Cells. The test can be described thus: TNF-α induced necroptosis of Jurkat FADD-deficient cells (CellTiter-Glo cell survival). It counts as cell-based, human. The note with it: Homo sapiens, Jurkat, 13 h. The procedure:
1. Cell Activity Testing System (TNF-α Induces the Necroptosis of Jurkat Cells, the Human Leukemia Cells Deficient in FADD).
(1) Cell culture: Jurkat FADD-deficient cells were cultured in an RPMI 1640 medium with 10% fetal bovine serum (FBS), 100 U/mL penicillin, and 100 […]. The cells were cultured in a cell culture incubator at 37° C. with 5% CO2. And all the cells were cryopreserved in a complete medium containing 5-10% DMSO. Medium change and passage were performed 3-4 times per week.
(4) Experimental scheme: The system of TNF-α inducing the necroptosis of Jurkat FADD-deficient cells was used to screen for compounds with RIPKl kinase inhibitory activity.
Jurkat FADD-deficient cells were evenly inoculated into a 384-well plate with each well added with a 40 μL complete culture medium, followed by the addition of 5 μL of the under-testing compound to each well. The initial concentration of the compounds was set at 25 μM (for some compounds with higher activity, the initial concentration was set at 0.5 μM), with a three-fold gradient dilution, totaling 12 gradient points. Three replicate wells were set for each compound. In addition, there was a blank control group and a control group with TNFα stimulation only. After the compound was added, the mixture needed to be centrifuged and incubated in a cell culture incubator at 37° C. containing 5% CO2 for 1 hour. After that, 5 μL of 5 ng/mL TNFα was added to stimulate the occurrence of necroptosis. After centrifugation and mixing, the mixture was placed in the cell culture incubator for 13 hours (until the cell death rate reaches 65% in the group with only TNF-α), with a total volume of 50 μL per well. Then, the steps below were followed to test the cell survival rate.
The CellTiter-Glo® Buffer was removed from the reagent kit, equilibrated to room temperature, and used to dissolve the CellTiter-Glo® Substrate. The CellTiter-Glo® Reagent obtained could be directly used for the experiment.
15 μL of CellTiter-Glo® Reagent which has been equilibrated to room temperature was added to each well, and incubated in the dark for 15 minutes. After that, a microplate reader (Enspire Multimode Plate Reader of PerkinElmer, USA) was used to measure the chemiluminescence.
On the technique in general: ATP-based viability assays read luminescence as a measure of living cells.
In the case of `COC(=O)Cn1cc2c3c(cccc31)N(C)C(=O)C(NC(=O)c1nnc(Cc3ccccc3)[nH]1)C2` (racemic) [T-29, (±)-methyl2-(3-(5-benzyl-4H-1,2,4-triazole-3-carboxamide)-1-methyl-2-oxo-1,2,3,4-tetrahydro-6H-azacyclo [4,3,2-cd]indol-6-yl)acetate], the IC50 is below 10 nM.
The compound `CN1C(=O)[C@@H](NC(=O)c2nnc(Cc3ccccc3)[nH]2)Cn2cc(C(=O)C(F)(F)F)c3cccc1c32` [T-93, (S)-5-benzyl-N-(1-methyl-2-oxo-7-(2,2,2-trifluoroacetyl)-1,2,3,4-tetrahydro-[1,4]diazepine [3,2,1-hi]indol-3-yl)-4H-1,2,4-triazole-3-carboxamide] came in with a half-maximal inhibitory concentration (IC50) of 100 to 1000 nM.
On to `CN1C(=O)[C@@H](NC(=O)c2nnc(Cc3ccccc3)[nH]2)Cn2cc(C(=O)O)c3cccc1c32` [T-94, (S)-3-(5-benzyl-4H-1,2,4-triazole-3-carboxamide)-1-methyl-2-oxo-1,2,3,4-tetrahydro-[1,4] diazabicyclo[3,2,1-hi] indole-7-carboxylic Acid], for which the 50% inhibitory concentration (IC50) was above 1000 nM.

Still in this test, the particulars now being: Homo sapiens; TNF-α induced necroptosis, Jurkat FADD-deficient cells, 13 hours, CellTiter-Glo; read-out: IC50.
As to `CN1C(=O)C(NC(=O)c2nnc(Cc3ccccc3)[nH]2)Cc2cn(-c3ncccc3OC(F)F)c3cccc1c23` (racemic) [T-107, (±)-5-benzyl-N-(6-(3-(difluoromethoxy)pyridin-2-yl)-1-methyl-2-oxy-2,3,4,6-tetrahydro-1H-azacyclo [4,3,2-cd]indol-3-yl)-4H-1,2,4-triazole-3-carboxamide], the IC50 was below 10 nM.
For `CN1C(=O)C(NC(=O)c2nnc(Cc3ccccc3)[nH]2)Cc2cn(-c3ncccc3S(C)(=O)=O)c3cccc1c23` (racemic) [T-68, (±)-5-benzyl-N-(1-methyl-6-(3-(methylsulfonyl)pyridin-2-yl)-2-oxo-2,3,4,6-tetrahydro-1H-azepine [4,3,2-cd]indol-3-yl)-4H-1,2,4-triazole-3-carboxamide], the IC50 was below 10 nM.
Still for that read-out and setting: for `CNC(=O)c1cccnc1-n1cc2c3c(cccc31)N(C)C(=O)C(NC(=O)c1nnc(Cc3ccccc3)[nH]1)C2` (racemic) [T-56, (±)-2-(3-(5-benzyl-4H-1,2,4-triazole-3-carboxamide)-1-methyl-2-oxy-1,2,3,4-tetrahydro-6H-azacyclo [4,3,2-cd]indol-6-yl)-N-methylnicotinamide] the value was 10 to 100 nM.
For the compound `COC(=O)c1cccnc1-n1cc2c3c(cccc31)N(C)C(=O)C(NC(=O)c1nnc(Cc3ccccc3)[nH]1)C2` (racemic) [T-43, (±)-2-(3-(5-benzyl-4H-1,2,4-triazole-3-carboxamide)-1-methyl-2-oxo-1,2,3,4-tetrahydro-6H-azacyclo [4,3,2-cd]indol-6-yl)nicotinate], the IC50 was below 10 nM.
As to `COC(=O)c1cc(-n2cc3c4c(cccc42)N(C)C(=O)C(NC(=O)c2nnc(Cc4ccccc4)[nH]2)C3)cn1C` (racemic) [T-100, (±)-methyl4-(3-(5-benzyl-4H-1,2,4-triazole-3-carboxamide)-1-methyl-2-oxo-1,2,3,4-tetrahydro-6H-azacyclo [4,3,2-cd]indol-6-yl)-1-methyl-1H-pyrrole-2-carboxylate], the IC50 is 10 to 100 nM.
Still for that read-out and setting: for `CN1C(=O)C(NC(=O)c2nnc(Cc3ccccc3)[nH]2)Cn2ccc3cc(F)cc1c32` (racemic) [T-7, (±)-5-benzyl-N-(9-fluoro-1-methyl-2-oxo-1,2,3,4-tetrahydro-[1,4]diazepino [3,2,1-hi]indol-3-yl)-4H-1,2,4-triazole-3-carboxamide] the value was 10 to 100 nM.
As to `CCOc1cccnc1-n1cc2c3c(cccc31)N(C)C(=O)C(NC(=O)c1nnc(Cc3ccccc3)[nH]1)C2` (racemic) [T-67, (±)-5-benzyl-N-(6-(3-ethoxypyridin-2-yl)-1-methyl-2-oxy-2,3,4,6-tetrahydro-1H-azacyclo [4,3,2-cd]indol-3-yl)-4H-1,2,4-triazole-3-carboxamide], the IC50 is below 10 nM.
Still for that read-out and setting: for `COC(=O)c1nccnc1-n1cc2c3c(cccc31)N(C)C(=O)C(NC(=O)c1nnc(Cc3ccccc3)[nH]1)C2` (racemic) [T-50, (±)-3-(3-(5-benzyl-4H-1,2,4-triazole-3-carboxamide)-1-methyl-2-oxo-1,2,3,4-tetrahydro-6H-azacyclo [4,3,2-cd]indol-6-yl)methyl pyrazine-2-carboxylate] the value was below 10 nM.
In the case of `CSc1cn2c3c(cccc13)N(C)C(=O)C(NC(=O)c1nnc(Cc3ccccc3)[nH]1)C2` (racemic) [T-4, (±)-5-benzyl-N-(1-methyl-7-(methylthio)-2-carbonyl-1,2,3,4-tetrahydro-[1,4]diazepino [3,2,1-hi]indol-3-yl)-4H-1,2,4-triazole-3-carboxamide], the IC50 is 10 to 100 nM.
As for `CCOC(=O)c1cccnc1-n1cc2c3c(cccc31)N(C)C(=O)C(NC(=O)c1nnc(Cc3ccccc3)[nH]1)C2` (racemic) [T-103], the IC50 was in the range of 10 to 100 nM.
On the same count and under the same terms, for `CCOC(=O)c1cc2cccc3c2n1CC(NC(=O)c1nnc(Cc2ccccc2)[nH]1)C(=O)N3C` (racemic) [T-12, (±)-3-(5-benzyl-4H-1,2,4-triazole-3-carboxamido)-1-methyl-2-oxy-1,2,3,4-tetrahydro-[1,4] diazepino [3,2,1-hi] indole-6-carboxylate] the value was 100 to 1000 nM; for `CN1C(=O)C(NC(=O)c2nnc(Cc3ccccc3)[nH]2)CN2CCc3cccc1c32` (racemic) [T-14, (±)-5-benzyl-N-(1-methyl-2-oxo-1,2,3,4,6,7-hexahydro-[1,4]diazepino [3,2,1-hi]indol-3-yl)-4H-1,2,4-triazole-3-carboxamide], 10 to 100 nM.
As for `CN1C(=O)C(NC(=O)c2nnc(Cc3ccccc3)[nH]2)Cc2cn(-c3ncccc3C(F)F)c3cccc1c23` (racemic) [T-53, (±)-5-benzyl-N-(6-(3-(difluoromethyl)pyridin-2-yl)-1-methyl-2-oxo-2,3,4,6-tetrahydro-1H-azacyclo [4,3,2-cd]indol-3-yl)-4H-1,2,4-triazole-3-carboxamide], the IC50 was below 10 nM.
As for `CN1C(=O)C(NC(=O)c2nnc(Cc3ccccc3)[nH]2)Cc2cn(-c3ccccc3)c3cccc1c23` (racemic) [T-24, (±)-5-benzyl-N-(1-methyl-2-oxo-6-phenyl-2,3,4,6-tetrahydro-1H-azacyclo [4,3,2-cd]indol-3-yl)-4H-1,2,4-triazole-3-carboxamide], the IC50 was 10 to 100 nM.
Regarding `CN1C(=O)[C@@H](NC(=O)c2nnc(Cc3ccccc3)[nH]2)Cc2c[nH]c3nccc1c23` [T-71, (S)-5-benzyl-N-(6-methyl-7-oxo-6,7,8,9-tetrahydro-2H-2,3,6-triazabenzene[cd]azulene-8-yl)-4H-1,2,4-triazole-3-carboxamide], the IC50 fell in the range of 10 to 100 nM.
For `CN1C(=O)C(NC(=O)c2nnc(Cc3ccccc3)[nH]2)Cc2cn(-c3ncn(C)n3)c3cccc1c23` (racemic) [T-73, (±)-5-benzyl-N-(1-methyl-6-(1-methyl-1H-1,2,4-triazole-3-yl)-2-oxo-2,3,4,6-tetrahydro-1H-azacyclo [4,3,2-cd]indol-3-yl)-4H-1,2,4-triazole-3-carboxamide], the IC50 lay within 10 to 100 nM.

Staying with this test, now noted: TNF-α induced necroptosis, Jurkat FADD-deficient cells, 13 hours, CellTiter-Glo; read-out: IC50.
On to `CN1C(=O)[C@@H](NC(=O)c2nnc(Cc3ccccc3)[nH]2)Cn2ccc3c(-c4c[nH]nc4C(F)(F)F)ccc1c32` [T-113, (S)-5-benzyl-N-(1-methyl-2-oxo-7-(3-(trifluoromethyl)-1H-pyrazol-4-yl)-1,2,3,4-tetrahydro-[1,4]diazepine [3,2,1-hi]indol-3-yl)-4H-1,2,4-triazole-3-carboxamide], for which the half-inhibitory concentration (IC50) was below 10 nM.

In general, IC50 refers to the point on the concentration scale where inhibition reaches its midpoint.

Values taken from patent US20250049812A1, “Compounds that Inhibit Necroptosis and Their Preparation Methods” (SHANGHAI INSTITUTE OF ORGANIC CHEMISTRY, CHINESE ACADEMY OF …, priority 2021, published 2025).
